What was measured:
[1] = Metabolic stability in human liver microsomes; type: in vitro ADME; settings: read-out: CL'int Human (converted)
Protocol: (§1) The incubation mixture containing 0.25 mg of rat or human liver microsomes was preincubated with an NADPH-generating system for 5 min at 37°C. The reaction was started by the addition of 5 μL of a DMSO solution containing the test compound (5 μM). At t = 0 and at two additional time points between 0 and 30 min, aliquots (100 μL) were removed and added to termination mixtures (CH3CN). Proteins were sedimented by centrifugation and an aliquot of the supernatant was analyzed by LC/MS/MS.
(§2) In determinations of the in vitrot1/2, the analyte/ISTD peak area ratio was converted to percentage of drug remaining by assigning a value of 100% to the peak area ratio at t = 0. The slope of the regression line fitted to the log (percentage remaining) versus incubation time relationship (-k) was used in the conversion of raw data to the in vitrot1/2 value. In vitro CLint was calculated using the following formula.
(§3) CLint=0.693/Invitro t1/2×mL incubation/mg microsomes×45 mg microsomes/mg liver×[…] (b.w.)

[2] = Metabolic stability in rat liver microsomes; type: in vitro ADME; settings: 5 μM
Protocol: as §1, §2, §3

CYP2B = CYP2B enzyme induction in rat hepatocytes (7-pentoxyresorufin O-dealkylation); type: in vitro ADME; settings: rat hepatocytes, 1, 10, 50 μM, 2 days
Protocol: (§4) Enzyme induction was evaluated as follows: Hepatocytes isolated from male SD rats were maintained in culture for 1 day before treatment with the test compound or P-450 inducers. The cells were treated with the test compound (1, 10, 50 μM), β-naphthoflavone (10 μM, CYP1A inducer), phenobarbital (50 μM, CYP2B inducer), dexamethasone (10 μM, CYP3A inducer), or vehicle (0.1% DMSO final volume; used as negative control) for 2 days.
(§5) Induction of CYP1A, CYP2B, and CYP3A enzymes was determined based on measurements of 7-ethoxyresorufin O-dealkylation, 7-pentoxyresorufin O-dealkylation, and testosterone 6β-hydroxylation, respectively. Assays were started by the addition of Krebs-Henseleit buffer containing 8 μM 7-ethoxyresorufin, 10 μM 7-pentoxyresorufin, or 250 μM testosterone at a volume of 100 μL per well. After incubation at 37°C for 30 min, aliquots were removed and analyzed by fluorometry (an excitation wavelength of 538 nm and an emission wavelength of 590 nm) or LC/MS/MS to determine the quantities of metabolites formed. Any test compound causing a dose-dependent change equal to or greater than 10% of the positive control (see formula below) was considered an enzyme inducer.
(§6) % positive control=(activity of test - compound treated cells - activity of negative control)/(activity of positive control - activity of negative control)×100

Human DPP-9 = Human DPP-9 (Homo sapiens, UniProt Q86TI2); assay: In vitro assay for inhibition of DPP-9
Protocol: (§7) Thus, isoindolines were synthesized as shown in Figure 1 and evaluated in vitro for their ability to inhibit human recombinant DPP-IV and were also screened for their selectivity over DPP-8/9 by a fluorescence assay using glycyl-proline 7-amino-4-methylcoumarin (H-Gly-Pro-AMC).
(§8) Human DPP-8 and DPP-9 were expressed in baculovirus-infected Sf9 insect cells and purified using His-tagged protein purification resins. Inhibition of DPP-8 and -9 activities was determined as described above. 10 μL of appropriately diluted aqueous solutions of the test compounds was added to 96-well microtiter plates, followed by the addition of 50 μL of 1.0 mM H-Gly-Pro-AMC in buffer solution (50 mM HEPES, 0.1 mg/mL BSA, pH 8.0). The reaction was initiated by the addition of 40 μL of the enzyme solution diluted in the assay buffer.

CYP3A = CYP3A enzyme induction in rat hepatocytes (testosterone 6β-hydroxylation); type: in vitro ADME; settings: rat hepatocytes, 1, 10, 50 μM, 2 days
Protocol: as §4, §5, §6

CYP1A = CYP1A enzyme induction in rat hepatocytes (7-ethoxyresorufin O-dealkylation); type: in vitro ADME; settings: rat hepatocytes, 1, 10, 50 μM, 2 days
Protocol: as §4, §5, §6

Human recombinant DPP-IV = Human recombinant DPP-IV (Homo sapiens, UniProt P27487); assay: In vitro assay for DPP-IV inhibition (H-Gly-Pro-AMC fluorescence)
Protocol: Inhibition of DPP-IV activity was determined by measuring the rate of hydrolysis of a surrogate substrate, H-Gly-Pro-7-amino-4-methylcoumarin (H-Gly-Pro-AMC). Human recombinant DPP-IV was purchased from R&D Systems, Minneapolis, MN. 10 μL of appropriately diluted solutions of the test compounds in water was added to 96-well microtiter plates, followed by the addition of 40 μL of DPP-IV diluted in assay buffer (25 mM HEPES, 140 mM NaC1, 0.1 mg/mL BSA, pH 7.8). After a 30-min preincubation at room temperature, the reaction was initiated by the addition of 50 μL of the assay buffer containing 0.2 mM H-Gly-Pro-AMC.

Human DPP-8 = Human DPP-8 (Homo sapiens, UniProt Q6V1X1); assay: In vitro assay for inhibition of DPP-8
Sequence of Human DPP-8 (Q6V1X1 whole entry): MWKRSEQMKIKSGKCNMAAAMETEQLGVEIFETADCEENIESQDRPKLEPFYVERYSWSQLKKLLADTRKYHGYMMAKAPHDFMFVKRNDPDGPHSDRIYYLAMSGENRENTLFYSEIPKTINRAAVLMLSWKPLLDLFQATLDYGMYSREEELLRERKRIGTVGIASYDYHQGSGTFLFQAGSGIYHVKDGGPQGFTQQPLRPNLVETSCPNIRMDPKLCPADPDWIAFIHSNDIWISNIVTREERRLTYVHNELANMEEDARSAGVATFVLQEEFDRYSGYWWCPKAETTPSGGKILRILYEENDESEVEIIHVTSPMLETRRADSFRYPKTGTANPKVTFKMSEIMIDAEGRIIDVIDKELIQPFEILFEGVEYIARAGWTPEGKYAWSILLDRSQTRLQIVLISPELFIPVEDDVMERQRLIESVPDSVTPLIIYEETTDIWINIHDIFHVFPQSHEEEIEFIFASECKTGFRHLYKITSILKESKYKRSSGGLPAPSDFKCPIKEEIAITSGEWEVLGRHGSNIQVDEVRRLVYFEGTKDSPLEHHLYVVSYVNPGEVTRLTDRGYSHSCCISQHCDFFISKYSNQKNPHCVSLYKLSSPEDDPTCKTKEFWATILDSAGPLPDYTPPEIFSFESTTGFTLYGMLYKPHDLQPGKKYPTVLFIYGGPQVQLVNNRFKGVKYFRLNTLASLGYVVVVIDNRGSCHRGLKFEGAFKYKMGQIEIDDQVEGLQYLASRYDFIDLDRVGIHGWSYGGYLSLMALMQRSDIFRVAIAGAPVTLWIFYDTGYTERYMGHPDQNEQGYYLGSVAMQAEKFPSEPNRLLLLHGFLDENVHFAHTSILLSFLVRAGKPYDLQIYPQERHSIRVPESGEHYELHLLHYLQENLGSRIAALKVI
Protocol: as §7, §8

Sequence of Human DPP-9 (Q86TI2 whole entry): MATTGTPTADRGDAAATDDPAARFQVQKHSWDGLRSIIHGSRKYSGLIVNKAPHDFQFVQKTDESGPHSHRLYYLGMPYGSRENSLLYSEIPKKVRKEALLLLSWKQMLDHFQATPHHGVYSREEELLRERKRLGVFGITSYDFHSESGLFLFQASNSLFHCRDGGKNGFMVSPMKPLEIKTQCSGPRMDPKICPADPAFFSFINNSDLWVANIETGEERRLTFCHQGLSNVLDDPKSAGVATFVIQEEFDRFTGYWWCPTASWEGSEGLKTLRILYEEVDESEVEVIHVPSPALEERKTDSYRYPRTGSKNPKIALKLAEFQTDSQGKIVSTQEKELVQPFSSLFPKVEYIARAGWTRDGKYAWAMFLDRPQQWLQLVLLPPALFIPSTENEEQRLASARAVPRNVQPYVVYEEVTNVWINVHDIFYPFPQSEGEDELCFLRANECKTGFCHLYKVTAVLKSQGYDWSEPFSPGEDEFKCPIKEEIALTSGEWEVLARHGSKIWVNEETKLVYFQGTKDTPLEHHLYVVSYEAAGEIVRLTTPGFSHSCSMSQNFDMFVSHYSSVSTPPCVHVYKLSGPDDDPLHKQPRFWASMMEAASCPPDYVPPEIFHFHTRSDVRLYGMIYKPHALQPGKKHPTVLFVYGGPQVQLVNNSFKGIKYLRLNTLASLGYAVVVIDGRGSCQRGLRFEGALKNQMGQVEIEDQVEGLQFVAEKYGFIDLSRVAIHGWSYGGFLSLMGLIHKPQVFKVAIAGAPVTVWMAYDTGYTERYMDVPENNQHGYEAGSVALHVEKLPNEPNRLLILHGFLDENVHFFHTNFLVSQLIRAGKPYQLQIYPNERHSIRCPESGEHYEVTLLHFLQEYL
Sequence of Human recombinant DPP-IV (P27487 whole entry): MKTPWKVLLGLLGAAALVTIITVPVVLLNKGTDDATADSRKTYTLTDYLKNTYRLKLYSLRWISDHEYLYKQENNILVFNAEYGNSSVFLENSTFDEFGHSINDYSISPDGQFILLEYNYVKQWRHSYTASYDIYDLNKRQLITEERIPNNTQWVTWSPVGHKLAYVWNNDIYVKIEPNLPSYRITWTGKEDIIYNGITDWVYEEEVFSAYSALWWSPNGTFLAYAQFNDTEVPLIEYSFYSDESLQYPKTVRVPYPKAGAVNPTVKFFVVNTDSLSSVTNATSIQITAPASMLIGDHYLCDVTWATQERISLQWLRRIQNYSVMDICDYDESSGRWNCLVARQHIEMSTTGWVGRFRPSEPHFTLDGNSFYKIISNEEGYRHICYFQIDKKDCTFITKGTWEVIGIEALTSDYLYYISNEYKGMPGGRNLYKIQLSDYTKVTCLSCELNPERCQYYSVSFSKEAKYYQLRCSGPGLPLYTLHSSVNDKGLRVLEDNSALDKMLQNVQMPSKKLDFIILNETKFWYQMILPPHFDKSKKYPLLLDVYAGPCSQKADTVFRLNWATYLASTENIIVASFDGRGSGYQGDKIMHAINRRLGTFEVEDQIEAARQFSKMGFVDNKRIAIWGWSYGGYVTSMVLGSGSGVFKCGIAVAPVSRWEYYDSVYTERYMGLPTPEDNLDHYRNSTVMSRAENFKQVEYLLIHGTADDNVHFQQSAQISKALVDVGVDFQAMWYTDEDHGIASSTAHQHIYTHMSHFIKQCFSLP

CLint scaled at 5 μM [1] [mL/min/kg]	CL'int Rat [2] [mL/min/kg]	IC50 (Human DPP-9) [µM]	IC50 (Human recombinant DPP-IV) [µM]	IC50 (Human DPP-8) [µM]	Structure (SMILES)	Enzyme induction (rat) CYP2B (CYP2B)	Enzyme induction (rat) CYP3A (CYP3A)	Enzyme induction (rat) CYP1A (CYP1A)
3.33	21.7	> 100	–	–	CC(C)(CC(=O)N1Cc2ccccc2C1)NCC(=O)N1CCC[C@H]1C#N [Compound 4a, (S)-1-(2-(4-(Isoindolin-2-yl)-2-methyl-4-oxobutan-2-ylamino)acetyl)pyrrolidine-2-carbonitrile]	+ (Any test compound causing a dose-dependent change equal to or greater than 10% of the positive control (see formula below) was considered an enzyme inducer)	+ (Any test compound causing a dose-dependent change equal to or greater than 10% of the positive control (see formula below) was considered an enzyme inducer)	+ (Any test compound causing a dose-dependent change equal to or greater than 10% of the positive control (see formula below) was considered an enzyme inducer)
80	43.3	> 100	0.0019	> 100	CC(C)(CC(=O)N1Cc2ccc(F)cc2C1)NCC(=O)N1CCC[C@H]1C#N [Compound 4c, (S)-1-(2-(4-(5-Fluoroisoindolin-2-yl)-2-methyl-4-oxobutan-2-ylamino)acetyl)pyrrolidine-2-carbonitrile]	+ (Any test compound causing a dose-dependent change equal to or greater than 10% of the positive control (see formula below) was considered an enzyme inducer)	–	–
–	–	> 100	0.003	36	CC(C)(CC(=O)N1Cc2ccc(Br)cc2C1)NCC(=O)N1CCC[C@H]1C#N [Compound 4d, (S)-1-(2-(4-(5-Bromoisoindolin-2-yl)-2-methyl-4-oxobutan-2-ylamino)acetyl)pyrrolidine-2-carbonitrile]	+ (Any test compound causing a dose-dependent change equal to or greater than 10% of the positive control (see formula below) was considered an enzyme inducer)	–	–
–	–	> 100	0.0048	44	CC(C)(CC(=O)N1Cc2ccc(Cl)cc2C1)NCC(=O)N1CCC[C@H]1C#N [Compound 4e, (S)-1-(2-(4-(5-Chloroisoindolin-2-yl)-2-methyl-4-oxobutan-2-ylamino)acetyl)pyrrolidine-2-carbonitrile]	+ (Any test compound causing a dose-dependent change equal to or greater than 10% of the positive control (see formula below) was considered an enzyme inducer)	–	–
–	–	> 100	0.0054	> 100	CC(C)(CC(=O)N1Cc2ccc(C(F)(F)F)cc2C1)NCC(=O)N1CCC[C@H]1C#N [Compound 4f, (S)-1-(2-(2-Methyl-4-oxo-4-(5-(trifluoromethyl)isoindolin-2-yl)butan-2-ylamino)acetyl)pyrrolidine-2-carbonitrile]	+ (Any test compound causing a dose-dependent change equal to or greater than 10% of the positive control (see formula below) was considered an enzyme inducer)	–	+ (Any test compound causing a dose-dependent change equal to or greater than 10% of the positive control (see formula below) was considered an enzyme inducer)
–	–	> 100	0.0026	> 100	CC(C)(CC(=O)N1Cc2cccc(F)c2C1)NCC(=O)N1CCC[C@H]1C#N [Compound 4g, (S)-1-(2-(4-(4-Fluoroisoindolin-2-yl)-2-methyl-4-oxobutan-2-ylamino)acetyl)pyrrolidine-2-carbonitrile]	+ (Any test compound causing a dose-dependent change equal to or greater than 10% of the positive control (see formula below) was considered an enzyme inducer)	–	–
–	–	> 100	0.004	> 100	Cc1cccc2c1CN(C(=O)CC(C)(C)NCC(=O)N1CCC[C@H]1C#N)C2 [Compound 4h, (S)-1-(2-(2-Methyl-4-(4-methylisoindolin-2-yl)-4-oxobutan-2-ylamino)acetyl)pyrrolidine-2-carbonitrile]	+ (Any test compound causing a dose-dependent change equal to or greater than 10% of the positive control (see formula below) was considered an enzyme inducer)	–	–
–	–	> 100	0.0026	> 100	CC(C)(CC(=O)N1Cc2c(Cl)ccc(Cl)c2C1)NCC(=O)N1CCC[C@H]1C#N [Compound 4i, (S)-1-(2-(4-(4,7-Dichloroisoindolin-2-yl)-2-methyl-4-oxobutan-2-ylamino)acetyl)pyrrolidine-2-carbonitrile]	–	–	+ (Any test compound causing a dose-dependent change equal to or greater than 10% of the positive control (see formula below) was considered an enzyme inducer)
–	–	74	0.022	> 100	CC(C)(CC(=O)N1Cc2cc(Cl)c(Cl)cc2C1)NCC(=O)N1CCC[C@H]1C#N [Compound 4j, (S)-1-(2-(4-(5,6-Dichloroisoindolin-2-yl)-2-methyl-4-oxobutan-2-ylamino)acetyl)pyrrolidine-2-carbonitrile]	+ (Any test compound causing a dose-dependent change equal to or greater than 10% of the positive control (see formula below) was considered an enzyme inducer)	–	+ (Any test compound causing a dose-dependent change equal to or greater than 10% of the positive control (see formula below) was considered an enzyme inducer)
–	–	> 100	0.016	> 100	COc1cc(C)cc2c1CN(C(=O)CC(C)(C)NCC(=O)N1CCC[C@H]1C#N)C2 [Compound 4k, (S)-1-(2-(4-(4-Methoxy-6-methylisoindolin-2-yl)-2-methyl-4-oxobutan-2-ylamino)acetyl)pyrrolidine-2-carbonitrile]	+ (Any test compound causing a dose-dependent change equal to or greater than 10% of the positive control (see formula below) was considered an enzyme inducer)	–	–
